How the values were obtained:
[1] = tested on: VIOTR; test: Pre-emergence herbicidal action against VIOTR; type: in vivo, Viola tricolor; settings: 320 g/ha
Excerpt: (§1) Seeds of monocotyledonous and dicotyledonous weed plants and crop plants are laid out in sandy loam soil in wood-fiber pots and covered with soil. The compounds of the invention, formulated in the form of wettable powders (WP) or as emulsion concentrates (EC), are then applied to the surface of the covering soil as aqueous suspension or emulsion at a water application rate equating to 600 to 800 L/ha with addition of 0.2% wetting agent.
(§2) After the treatment, the pots are placed in a greenhouse and kept under good growth conditions for the trial plants. The damage to the test plants is scored visually after a test period of 3 weeks by comparison with untreated controls (herbicidal activity in percent (%): 100% activity=the plants have died, 0% activity=like control plants).

[2] = tested on: ECHCG; test: Post-emergence herbicidal action against ECHCG; type: in vivo, Echinochloa crus-galli; settings: 80 g/ha, visual assessment about 3 weeks after treatment vs untreated controls
Outline: (§3)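 Herbicidal action is rated visually in percent against untreated controls, where 100% means dead plants and 0% means no difference. Ratings come about 3 weeks after foliar spraying of one-leaf-stage plants with aqueous WP or EC preparations plus 0.2% wetting agent at 600 to 800 l/ha.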

[3] = tested on: SETVI; test: Post-emergence herbicidal action against SETVI; type: in vivo, Setaria viridis; settings: 80 g/ha, visual assessment about 3 weeks after treatment vs untreated controls
Outline: as §3

[4] = tested on: MATIN; test: Pre-emergence herbicidal action against MATIN; type: in vivo; settings: 320 g/ha
Excerpt: as §1, §2

[5] = tested on: ALOMY; test: Post-emergence herbicidal action against ALOMY; type: in vivo, Alopecurus myosuroides; settings: 80 g/ha, visual assessment after about 3 weeks
Outline: as §3

[6] = tested on: SETVI; test: Pre-emergence herbicidal action against SETVI; type: in vivo, Setaria viridis; settings: 320 g/ha, scored visually after 3 weeks vs untreated controls
Outline: (§4)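 Sandy loam, wood-fiber pots, seeds covered with soil. Spray onto soil surface: aqueous WP/EC, 600 to 800 L/ha, 0.2% wetting agent. Greenhouse 3 weeks; visual % score vs untreated controls.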

[7] = tested on: DIGSA; test: Pre-emergence herbicidal action against DIGSA; type: in vivo, Digitaria sanguinalis; settings: 320 g/ha, scored visually after 3 weeks vs untreated controls
Outline: as §4

[8] = tested on: DIGSA; test: Post-emergence herbicidal action against DIGSA; type: in vivo, Digitaria sanguinalis; settings: 80 g/ha, visual assessment about 3 weeks after treatment vs untreated controls
Outline: as §3

[9] = tested on: LOLRI; test: Pre-emergence herbicidal action against LOLRI (Table 8, titled post-emergence at 320 g/ha); type: in vivo, Lolium rigidum; settings: table stands in the pre-emergence section
Outline: as §4

[10] = tested on: ECHCG; test: Pre-emergence herbicidal action against ECHCG; type: in vivo, Echinochloa crus-galli; settings: 320 g/ha, scored visually after 3 weeks vs untreated controls
Outline: as §4

[11] = tested on: LOLRI; test: Post-emergence herbicidal action against LOLRI; type: in vivo, Lolium rigidum; settings: 80 g/ha, visual assessment about 3 weeks after treatment vs untreated controls
Outline: as §3

[12] = tested on: AVEFA; test: Post-emergence herbicidal action against AVEFA; type: in vivo, Avena fatua; settings: 80 g/ha, visual assessment after about 3 weeks
Outline: as §3

[13] = tested on: ALOMY; test: Pre-emergence herbicidal action against ALOMY; type: in vivo, Alopecurus myosuroides; settings: 320 g/ha, scored visually after 3 weeks vs untreated controls
Outline: as §4

[14] = tested on: AMARE; test: Pre-emergence herbicidal action against AMARE; type: in vivo, Amaranthus retroflexus; settings: 320 g/ha
Excerpt: as §1, §2

[15] = tested on: AVEFA; test: Pre-emergence herbicidal action against AVEFA; type: in vivo, Avena fatua; settings: 320 g/ha, scored visually after 3 weeks vs untreated controls
Outline: as §4

[16] = tested on: VERPE; test: Pre-emergence herbicidal action against VERPE; type: in vivo, Veronica persica; settings: 320 g/ha
Excerpt: as §1, §2

Compound	Pre-emergence action against VIOTR in % [1] [%]	Post-emergence action against ECHCG in % [2] [%]	Post-emergence action against SETVI in % [3] [%]	Pre-emergence action against MATIN in % [4] [%]	Post-emergence action against ALOMY in % [5] [%]	Pre-emergence action against SETVI in % [6] [%]	Pre-emergence action against DIGSA in % [7] [%]	Post-emergence action against DIGSA in % [8] [%]	Pre-emergence herbicidal action against LOLRI in % [9] [%]	Pre-emergence action against ECHCG in % [10] [%]	Post-emergence action against LOLRI in % [11] [%]	Post-emergence action against AVEFA in % [12] [%]	Pre-emergence action against ALOMY in % [13] [%]	Pre-emergence action against AMARE in % [14] [%]	Pre-emergence action against AVEFA in % [15] [%]	Pre-emergence action against VERPE in % [16] [%]
CC#Cc1cc(C)c(C2=C(O)C3(CCC(COCCC)C3)NC2=O)c(OC)c1 (stereo not drawn) [Example I-59]	100	100	100	80	100	100	100	100	100	100	90	90	100	100		
C=CCOCC1CCC2(C1)NC(=O)C(c1c(C)cc(C#CC)cc1Br)=C2O (stereo not drawn) [Example I-67]	100	90	90	80	100	100	100	90	100	100	90		100		80	
C#CCOCC1CCC2(C1)NC(=O)C(c1c(F)cc(C#CC)cc1OC)=C2O (stereo not drawn) [Example I-75]		100	100	90	90	100	100	90	100	90	90	90	90	80	100	
C#CCOCC1CCC2(C1)NC(=O)C(c1c(C)cc(C#CC)cc1OC)=C2O (stereo not drawn) [Example I-77]		100	100	80	100	100	100	90	100	100	90	90	100	100	100	
CC#Cc1cc(C)c(C2=C(OC(=O)C(C)C)C3(CCC(COCC)C3)NC2=O)c(Br)c1 (stereo not drawn) [Example P-37]	100	100	100		100	100	100	100	100	100	100	90	100	100	80	80
CC#Cc1cc(C)c(C2=C(OC(=O)C(C)C)C3(CCC(COCC)C3)NC2=O)c(OC)c1 (stereo not drawn) [Example P-50]	100	100	100		100	100	100	90	100	100	100	90	100	100	100	80
CC#Cc1cc(C)c(C2=C(OC(=O)C(C)C)C3(CCC(COCC)C3)NC2=O)c(F)c1 (stereo not drawn) [Example P-56]	100	100	100	80	100	100	100	100	100	100	100	90	100	80	80	
CC#Cc1cc(F)c(C2=C(OC(=O)C(C)C)C3(CCC(COCC)C3)NC2=O)c(OC)c1 (stereo not drawn) [Example P-67]		100	100		100	100	100		90	100	90	90	100	80	80	80
CC#Cc1cc(C)c(C2=C(OC(=O)OCC)C3(CCC(COCCOC)C3)NC2=O)c(OC)c1 (stereo not drawn) [Example P-79]	100	100	100		100	100	100	90	100	100	90	90	100	80	100	90
CC#Cc1cc(F)c(C2=C(OC(=O)OCC)C3(CCC(COCCC)C3)NC2=O)c(OC)c1 (stereo not drawn) [Example P-84]	80	100	100	80		100	100	90	100	100	80	80	100		80	
C#CCOCC1CCC2(C1)NC(=O)C(c1c(C)cc(C#CC)cc1Cl)=C2OC(=O)OCC (stereo not drawn) [Example P-99]	100	100	100		100	100	100	90	100	100	90	80	100	100	100	100
